No end group written: not given here.
Key:
rat pituitary cell = experiment: In vitro rat pituitary cell bioassay (GH release); type: cell-based; conditions: two DMSO preparations; FIGS. 8 and 9
Procedure: In vitro rat pituitary cell bioassay for hGRF(1-29)
The animals (SPF male Sprague-Dawley rats 200 g, b.w.) were sacrificed by CO2 inhalation and the pituitaries removed. The tissue was finely minced and put into a bottle with the enzyme solution for tissue digestion. The bottle was placed in an incubator at 37° C. for 1 hour.
The digested tissue was recovered and the cells washed twice, counted and adjusted to a concentration of 5×10^5/ml. The cells were plated out in a 48-well plate (200 μl/well) and the plate placed in an incubator for 72 hrs.
After 72 hrs the cells were incubated with different concentrations of hGRF for 4 hours. At the end of the incubation period the supernatants were collected and stored at −80° C.
The GH content in each sample was assayed by a commercial rat GH radioimmunoassay kit.

GH serum levels = experiment: In vivo assay: serum GH levels after i.v. injection in male rats; design: species or system Sprague-Dawley rats; conditions: for GH serum levels induced, compared with hGRF1-29: 400 μg i.v., rats, DMSO preparations, FIG. 11A
Procedure: (§1) SPF adult male Sprague-Dawley rats, 200-250 g b.w, supplied by Charles River, are used after an acclimatisation period of at least 7 days.
(§2) The animal was injected i.v. with hGRF(1-29) (400 μg/rat). A few minutes before blood collection, the animal was anaesthetized (ketamine-xylazine). […] The sample was divided into two aliquots: 1 ml was collected as such and serum was obtained after an incubation period of about 3 hours at 37° C. and subsequent centrifugation; the remaining 1 ml was collected into a vial containing 50 μl of a 4 mg/ml heparin solution, immediately stored on ice and plasma was obtained after centrifugation at 4° C.
(§3) Blood samples were collected at different time points from the injection of the test compound using different animals. In each experimental session a total of three rats for each time point was used.
(§4) Plasma and serum samples were immediately frozen and stored at −20° C.
(§5) GH serum levels were measured by a commercial RIA kit; hGRF plasma levels were measured by a commercial RIA kit for hGRF(1-44).

[1] = cited from earlier work
[2] = molecular target: T1, human growth hormone releasing factor receptor (hGRF-R) (Homo sapiens, UniProt Q02643); experiment: CHO-hGRFR-LUC in vitro assay (luciferase reporter gene assay); type: cell-based; conditions: DMSO and nicotinamide preparations; FIGS. 5-7
T1 construct: expressed in transfected cells; host or cells: CHO-DUKX (clone CHO-hGRFR-LUC 1-11-20)
T1 sequence (Q02643 23-423): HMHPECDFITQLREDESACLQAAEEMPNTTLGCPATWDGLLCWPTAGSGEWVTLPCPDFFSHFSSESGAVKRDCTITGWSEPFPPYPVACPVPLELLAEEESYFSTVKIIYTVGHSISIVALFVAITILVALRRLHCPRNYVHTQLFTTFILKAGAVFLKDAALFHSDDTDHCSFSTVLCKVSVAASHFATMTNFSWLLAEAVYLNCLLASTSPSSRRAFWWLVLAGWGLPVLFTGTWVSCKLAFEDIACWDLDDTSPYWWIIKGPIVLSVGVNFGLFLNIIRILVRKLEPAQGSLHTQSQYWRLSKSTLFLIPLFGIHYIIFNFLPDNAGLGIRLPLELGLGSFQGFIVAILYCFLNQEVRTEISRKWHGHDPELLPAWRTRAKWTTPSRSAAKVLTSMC
Source text: CHO-hGRFR-LUC in Vitro Assay
CHO-hGRFR-LUC (clone 1-11-20) is a cloned cell line that had been obtained by cotransfection of the pcDNA3-hGRF-R and pTF5-53 LUC vectors into CHO-DUKX cell line.
The plasmid pcDNA3-hGRF-R was constructed by inserting the human growth hormone releasing factor receptor (hGRF-R) cDNA into pcDNA3 expression vector. The Bluescript plasmid containing hGRF-R cDNA was kindly provided by Dr. B. Gaylinn (University of Virginia) the pcDNA3 mammalian expression vector was obtained from Invitrogen. The hGRF-R coding sequence was driven by the human cytomegalovirus (CMV) promoter.
The plasmid pTF5-53LUC was constructed by inserting the c-fos cAMP response element along with its endogenous promoter upstream of the luciferase coding sequence in plasmid poLuc. The cAMP response element and the c-fos promoter were obtained from the plasmid pTF5-53 (described in Fish et al, 1989). The promoterless reporter gene vector (poLuc) with multiple cloning sites upstream of the luciferase coding sequence was obtained from Dr. Brasier (University of Texas, Galveston).
These CHO-DUKX cells obtained by the above co-transfection were routinely grown in MEM alpha medium containing ribonucleosides and deoxyribonucleosides and supplemented with 10% fetal calf serum plus 600 μg/ml geneticin G418 sulfate.
The cells were seeded (40,000 cells/well) in white 96-well plates (Dynatech) and incubated for 16-18 hrs in 200 μl growth medium before the assay.
The next day, the medium was removed and replaced with a medium containing different concentrations of hGRF(1-29) in-house reference standard (Bachem) or different hGRF-PEG conjugates before incubating the plates at 37° C., 5% CO2 for two hours. At the end of incubation, CHO-hGRFR-LUC cells were washed twice with 200 μl of PBS (Sigma) and then lysed by adding 50 μl of a cell culture lyses reagent (Promega) to each well. After a further 15-minute incubation at room temperature, the plates were read in a luminometer (Dynatech) after introducing 150 μl of a luciferase assay reagent (Promega).
As an alternative method, CHO-hGRFR-LUC cells, seeded at 50,000 cells/well, at the end of incubation with different hGRF-PEG conjugates, were washed with PBS, as above discussed. To each well 100 μl PBS containing calcium and magnesium ions was added, prior to addition of 100 μl of Luclite (Packard). After 10 minutes incubation at room temperature, plates were read in luminometer (Lumicount-Packard).
Results were expressed as relative light unit (RLU).

[3] = In vivo assay: plasma hGRF levels after i.v. injection in male rats; design: species or system Sprague-Dawley rats
Procedure: as §1, §2, §3, §4, §5

[4] = Solubility in aqueous buffer; type: physicochemical; conditions: water solution at neutral or slightly alkaline pH

N^α-(PEG5,000—CH2—CO—Nle—CO)[Lys(MPEG5,000—CH2—CO—Nle—CO)^12,21-hGRF(1-29)—NH2] [GRF-3PEG]
GH release from rat pituitary cell in vitro (rank of activity) (rat pituitary cell): then GRF-3PEG | GH serum levels induced, compared with hGRF1-29 (GH serum levels): lower activity

GRF: peptide secreted by the hypothalamus which promotes the release of growth hormone; exists as 44-, 40-, or 37-amino acid peptide
biological half-life [1]: 12 to 30 minutes

[Lys(MPEG5,000—CH2—CO—Nle—CO)^12-hGRF(1-29)—NH2] [GRF-1PEG 2nd peak]
biological effect (activity) in the CHO-hGRFR-LUC in vitro assay [2]: more active than the GRF-2PEG and GRF-3PEG | GH serum levels induced, compared with hGRF1-29 (GH serum levels): comparable to those obtained with hGRF1-29

hGRF(3-29) (DAIFTNSYRKVLGQLSARKLLQDIMSR; ends and bridges not checked; UniProt P01286 34-60, looked up, fragment) [Human GRF3-29, two preparations, supplied by Bachem and by ISL, reference compound]
biological effect (activity) in the CHO-hGRFR-LUC in vitro assay [2]: did not possess a significant in vitro activity

[Lys(MPEG5,000—CH2—CO—Nle—CO)^21-hGRF(1-29)—NH2] [GRF-1PEG 1st peak]
biological effect (activity) in the CHO-hGRFR-LUC in vitro assay [2]: more active than the GRF-2PEG and GRF-3PEG | GH release from rat pituitary cell in vitro (rank of activity) (rat pituitary cell): the most active compound | GH serum levels induced, compared with hGRF1-29 (GH serum levels): comparable to those obtained with hGRF1-29

CC[C@H](C)[C@H](NC(=O)[C@H](C)NC(=O)[C@H](CC(=O)O)NC(=O)[C@H](C)NC(=O)[C@@H](N)Cc1ccc(O)cc1)C(=O)N[C@@H](Cc1ccccc1)C(=O)N[C@H](C(=O)N[C@@H](CC(N)=O)C(=O)N[C@@H](CO)C(=O)N[C@@H](Cc1ccc(O)cc1)C(=O)N[C@@H](CCCNC(=N)N)C(=O)N[C@@H](CCCCN)C(=O)N[C@H](C(=O)N[C@@H](CC(C)C)C(=O)NCC(=O)N[C@@H](CCC(N)=O)C(=O)N[C@@H](CC(C)C)C(=O)N[C@@H](CO)C(=O)N[C@@H](C)C(=O)N[C@@H](CCCNC(=N)N)C(=O)N[C@@H](CCCCN)C(=O)N[C@@H](CC(C)C)C(=O)N[C@@H](CC(C)C)C(=O)N[C@@H](CCC(N)=O)C(=O)N[C@@H](CC(=O)O)C(=O)N[C@H](C(=O)N[C@@H](CCSC)C(=O)N[C@@H](CO)C(=O)N[C@@H](CCCNC(=N)N)C(N)=O)[C@@H](C)CC)C(C)C)[C@@H](C)O [hGRF, hGRF(1-29)—NH2, reference compound]
biological effect (activity) in the CHO-hGRFR-LUC in vitro assay [2]: No difference | time at which serum GH returned to basal levels (GH serum levels; 400 μg/rat i.v., male rats): 60 min | time of serum GH peak after i.v. injection (GH serum levels; 400 μg/rat i.v., male rats): 10 min | plasma hGRF concentrations up to 60 min ([3]; 400 μg/rat i.v., male rats, FIG. 10): maintained a sustained level | Tmax ([3]; male, Sprague-Dawley, rat, in vivo, iv, 400 ug/animal): 10 min | solubility in neutral/alkaline buffer solution [4]: low solubility

[Lys(MPEG5,000—CH2—CO—Nle—CO)^12,21-hGRF(1-29)—NH2] [GRF-2PEG]
GH serum levels induced, compared with hGRF1-29 (GH serum levels): comparable to those obtained with hGRF1-29

— US7317002B2, “Site-specific preparation of polyethylene glycol-GRF conjugates” (Applied Research Systems ARS Holding N.V., priority 1997, dated 2008)
